PMC3542985 (The Journal of neuroscience : the official journal of the …, 2013)
Values joined by “and” are separate entries in the source; they are usually repeats but may differ in a detail not shown here. Equal values may be shown once. Read-outs that look alike come from different tables or passages of the source.

Tests used:
Torpedo nAChR [1] = biological target: T1, Torpedo nAChR (Tetronarce californica, UniProt P02710+P02712+P02714+P02718); experiment: biochemical; type: binding
[2] = biological target: T2, Na^+/K^+-ATPase α subunit (Tetronarce californica, UniProt P05025); type: binding, Torpedo californica
Torpedo nAChR [3] = biological target: T1, Torpedo nAChR; type: binding
[4] = biological target: T2, Na^+/K^+-ATPase α subunit; type: binding, Torpedo californica; remark: listed apart in the source
Torpedo nAChR [5] = biological target: T1, Torpedo nAChR; experiment: equilibrium binding of the ion channel blocker [^3H]PCP
Torpedo nAChR [6] = biological target: T1, Torpedo nAChR; experiment: equilibrium binding of the ion channel blocker [^3H]tetracaine
Torpedo nAChR [7] = biological target: T1, Torpedo nAChR; experiment: equilibrium binding of [^3H]ACh; details: IC50, inhibition of [^3H]ACh binding
[8] = Resting vs. Desensitized, −Carb (no other drugs)

T2 sequence (P05029 whole entry, other chains not shown): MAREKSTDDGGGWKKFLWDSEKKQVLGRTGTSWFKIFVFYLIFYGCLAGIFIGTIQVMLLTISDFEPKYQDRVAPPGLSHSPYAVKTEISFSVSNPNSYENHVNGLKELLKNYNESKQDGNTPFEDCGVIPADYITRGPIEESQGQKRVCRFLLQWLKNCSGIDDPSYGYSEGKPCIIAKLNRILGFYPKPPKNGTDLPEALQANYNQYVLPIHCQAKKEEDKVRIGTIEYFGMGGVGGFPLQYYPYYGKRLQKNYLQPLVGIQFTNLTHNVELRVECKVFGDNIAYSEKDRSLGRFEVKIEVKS
T1 sequence (P02718 22-522): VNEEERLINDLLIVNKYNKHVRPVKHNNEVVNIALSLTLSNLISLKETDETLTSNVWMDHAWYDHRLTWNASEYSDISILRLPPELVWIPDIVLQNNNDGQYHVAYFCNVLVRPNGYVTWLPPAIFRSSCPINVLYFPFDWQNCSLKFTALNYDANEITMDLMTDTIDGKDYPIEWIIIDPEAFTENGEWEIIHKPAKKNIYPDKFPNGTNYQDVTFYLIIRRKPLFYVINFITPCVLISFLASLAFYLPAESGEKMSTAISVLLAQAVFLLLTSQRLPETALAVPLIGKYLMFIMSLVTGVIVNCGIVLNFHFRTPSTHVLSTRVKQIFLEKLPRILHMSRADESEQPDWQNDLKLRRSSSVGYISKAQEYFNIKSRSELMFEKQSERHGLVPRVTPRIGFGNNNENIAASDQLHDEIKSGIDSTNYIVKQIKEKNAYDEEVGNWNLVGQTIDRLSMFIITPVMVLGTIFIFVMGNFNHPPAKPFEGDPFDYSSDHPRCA
T1 sequence (P02714 18-506): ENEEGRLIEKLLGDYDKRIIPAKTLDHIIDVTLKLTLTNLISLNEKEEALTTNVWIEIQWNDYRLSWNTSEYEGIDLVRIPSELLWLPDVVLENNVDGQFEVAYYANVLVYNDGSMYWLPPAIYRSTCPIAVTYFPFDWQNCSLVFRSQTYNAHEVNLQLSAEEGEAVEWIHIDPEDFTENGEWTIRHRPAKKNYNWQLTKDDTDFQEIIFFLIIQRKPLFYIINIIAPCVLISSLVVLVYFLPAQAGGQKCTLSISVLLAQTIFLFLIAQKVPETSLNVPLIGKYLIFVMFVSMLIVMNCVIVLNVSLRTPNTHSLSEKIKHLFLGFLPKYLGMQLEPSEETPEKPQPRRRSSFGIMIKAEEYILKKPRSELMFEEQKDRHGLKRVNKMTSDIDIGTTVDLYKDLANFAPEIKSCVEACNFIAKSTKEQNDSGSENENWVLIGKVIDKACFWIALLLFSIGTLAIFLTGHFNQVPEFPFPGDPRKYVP
T1 sequence (P02712 25-493): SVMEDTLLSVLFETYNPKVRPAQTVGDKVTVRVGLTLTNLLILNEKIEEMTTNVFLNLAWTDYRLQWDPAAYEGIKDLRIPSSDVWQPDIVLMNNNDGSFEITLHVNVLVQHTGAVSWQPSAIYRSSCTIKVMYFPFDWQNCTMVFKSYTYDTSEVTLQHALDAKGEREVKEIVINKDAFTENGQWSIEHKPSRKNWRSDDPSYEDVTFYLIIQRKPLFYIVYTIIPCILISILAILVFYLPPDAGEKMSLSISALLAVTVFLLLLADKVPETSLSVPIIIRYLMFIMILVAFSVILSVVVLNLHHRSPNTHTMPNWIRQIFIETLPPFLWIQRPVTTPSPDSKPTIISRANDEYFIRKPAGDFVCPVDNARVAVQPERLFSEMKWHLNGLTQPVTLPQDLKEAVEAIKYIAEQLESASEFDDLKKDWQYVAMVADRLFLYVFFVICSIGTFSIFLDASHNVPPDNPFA
T1 sequence (P02710 25-461): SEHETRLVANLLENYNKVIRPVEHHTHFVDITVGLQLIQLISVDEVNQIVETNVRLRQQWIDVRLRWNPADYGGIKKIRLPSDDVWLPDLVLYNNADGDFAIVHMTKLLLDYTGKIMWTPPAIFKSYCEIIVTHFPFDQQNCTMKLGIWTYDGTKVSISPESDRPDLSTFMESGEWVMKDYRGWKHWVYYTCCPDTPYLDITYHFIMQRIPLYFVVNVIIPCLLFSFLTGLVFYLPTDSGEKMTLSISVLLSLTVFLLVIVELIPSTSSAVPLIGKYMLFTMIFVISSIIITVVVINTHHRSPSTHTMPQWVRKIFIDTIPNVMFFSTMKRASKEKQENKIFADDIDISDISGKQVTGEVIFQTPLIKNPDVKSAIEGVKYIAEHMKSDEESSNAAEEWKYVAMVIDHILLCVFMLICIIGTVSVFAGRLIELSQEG

`C[N+](C)(C)CCOC(N)=O.[Cl-]` [Carb, carbamylcholine] was tested, and the “alteration of [^3H]physostigmine photoincorporation in nAChR β subunit” value (Torpedo nAChR [1]) was < 5%, the “change of efficiency of [^3H]physostigmine photolabeling at δTyr-439” value (from here on “change of efficiency … at δTyr-439”) (Torpedo nAChR [1]) was < 20% and the “effect on [^3H]physostigmine photolabeling of γTyr-105” value (Torpedo nAChR [1]) was “enhanced”. The “effect on efficiency of [^3H]physostigmine photolabeling of δTyr-212” value (Torpedo nAChR [1]) was “doubled”, the “increase of [^3H]physostigmine photolabeling of nAChR δ subunit” value (Torpedo nAChR [1]) was ~ 10% and the “inhibition of [^3H]physostigmine photolabeling of αTyr-93” value (Torpedo nAChR [1]) was > 90%. The “inhibition of [^3H]physostigmine photolabeling of αTyr-190, αCys-192 and αTyr-198” value (Torpedo nAChR [1]) was > 85%, the “inhibition of [^3H]physostigmine photolabeling of αV8-20 fragment” value (Torpedo nAChR [1]) was > 75% and the “inhibition of [^3H]physostigmine photolabeling of γTyr-111 and γTyr-117” value (Torpedo nAChR [1]) was 50–60%. The “reduction of [^3H]physostigmine photoincorporation into nAChR α subunit” value (Torpedo nAChR [1]) was 40%, the “reduction of [^3H]physostigmine photoincorporation into nAChR γ subunit” value (Torpedo nAChR [1]) was 10% and the “alteration of [^3H]physostigmine photoincorporation in Na^+/K^+-ATPase α subunit” value [2] was < 5%. For the same compound, the “inhibition of [^3H]galanthamine photolabeling in the α subunit” value (Torpedo nAChR [3]) was 80%, the “inhibition of [^3H]galanthamine photolabeling of αTyr-190 and αTyr-198” value (Torpedo nAChR [3]) was > 95% and the “reduction of [^3H]galanthamine photolabeling in β subunit” value (Torpedo nAChR [3]) was < 5%. The “reduction of [^3H]galanthamine photolabeling in γ and δ subunits” value (Torpedo nAChR [3]) was ~ 25%.

For `COc1ccc2c3c1O[C@H]1C[C@@H](O)C=C[C@@]31CCN(C)C2` [galanthamine], the “change of efficiency … at δTyr-439” value (Torpedo nAChR [1]) was < 20%, the “reduction of [^3H]physostigmine photoincorporation into the nAChR subunits” value (Torpedo nAChR [1]) was “to the same extent as 100 μM physostigmine” and the inhibition at 300 µM (Torpedo nAChR [1]; read-out: inhibition of [^3H]physostigmine photolabeling of γTyr-105, γTyr-111 and γTyr-117) was ~75%. For the same compound, the inhibition at 300 µM (Torpedo nAChR [1]; read-out: inhibition of [^3H]physostigmine photolabeling of δTyr-212) was ~50%, the “reduction of [^3H]galanthamine photolabeling of Na^+/K^+-ATPase α subunit” value [4] was < 5% and the inhibition at 3000 µM (Torpedo nAChR [5]; read-out: inhibition of [^3H]PCP binding) was 20%. The “reduction of [^3H]galanthamine photolabeling of each nAChR subunit” value (Torpedo nAChR [3]) was ~ 25%, the inhibition at 3000 µM (Torpedo nAChR [6]; read-out: inhibition of [^3H]tetracaine binding) was 10% and the IC50 (Torpedo nAChR [7]) was 3000 µM and 2800 µM.

`CNC(=O)Oc1ccc2c(c1)[C@]1(C)CCN(C)[C@@H]1N2C` [physostigmine] was tested, and the “decrease of [^3H]physostigmine photolabeling in the nAChR subunits” value (Torpedo nAChR [1]) was 25–40%, the “decrease of [^3H]physostigmine photolabeling in Na^+/K^+-ATPase α subunit” value [2] was < 5% and the IC50 (Torpedo nAChR [5]; IC50, inhibition of [^3H]PCP binding) was 1000 µM and 900 µM. The IC50 (Torpedo nAChR [6]) was 5000 µM and the IC50 (Torpedo nAChR [7]) was > 10000 µM.

With [^3H]physostigmine the “efficiency of photolabeling at δTyr-439” value (Torpedo nAChR [1]) was 1 cpm/pmol, the “photolabeling, if it occurred, of αLys-125” value (Torpedo nAChR [1]) was “less than 0.2 cpm/pmol” and the “photolabeling, if it occurred, of αTyr-127” value (Torpedo nAChR [1]) was < 0.05 cpm/pmol. The “photolabeling of δTyr-172” value (Torpedo nAChR [1]; +Carb 1 mM) was 4.9 cpm/pmol, the “photolabeling of δTyr-172” value (Torpedo nAChR [1]; +αBgTx 8 μM) was 1.6 cpm/pmol and the “photolabeling of δTyr-172” value (Torpedo nAChR [1]; Carb-independent) was 4 cpm/pmol. For the same compound, the “photoincorporation into αY190 (Site IV, core aromatics)” value (Torpedo nAChR [1]; [8]) was 10 cpm/pmol, the “photoincorporation into αY198 (Site IV, core aromatics)” value (Torpedo nAChR [1]; [8]) was 20 cpm/pmol and the “photoincorporation into γY111 (Site I)” value (Torpedo nAChR [1]; [8]) was 9 cpm/pmol. The “photoincorporation into γY117 (Site I)” value (Torpedo nAChR [1]; [8]) was 2 cpm/pmol, the “photolabeling of αCys-192” value (Torpedo nAChR [1]; absence of other drugs) was 10 cpm/pmol and the “photolabeling of δTrp-57” value (Torpedo nAChR [1]; data not shown) was 0.8 cpm/pmol. The “photolabeling, if it occurred, of adjacent aromatic amino acids (δTrp-64, δTyr-65)” value (Torpedo nAChR [1]; data not shown) was < 0.2 cpm/pmol, the “photolabeling of δTyr-172” value (Torpedo nAChR [1]; −Carb) was 3.4 cpm/pmol and the “photolabeling of δTyr-172” value (Torpedo nAChR [1]; −αBgTx) was 5 cpm/pmol.

For α-bungarotoxin [α-BgTx], the “alteration of [^3H]physostigmine photoincorporation in nAChR β subunit” value (Torpedo nAChR [1]) was < 5%, the “change of efficiency … at δTyr-439” value (Torpedo nAChR [1]) was < 20% and the “decrease of [^3H]physostigmine photolabeling of nAChR δ subunit” value (Torpedo nAChR [1]) was ~ 10%. For the same compound, the “effect on [^3H]physostigmine photolabeling of γTyr-105” value (Torpedo nAChR [1]) was “unchanged”, the “inhibition of [^3H]physostigmine photolabeling of αTyr-190, αCys-192 and αTyr-198” value (Torpedo nAChR [1]) was > 85% and the “inhibition of [^3H]physostigmine photolabeling of αV8-20 fragment” value (Torpedo nAChR [1]) was > 75%. The “inhibition of [^3H]physostigmine photolabeling of γTyr-111 and γTyr-117” value (Torpedo nAChR [1]) was 50–60%, the “reduction of [^3H]physostigmine photoincorporation into nAChR α subunit” value (Torpedo nAChR [1]) was 40% and the “reduction of [^3H]physostigmine photoincorporation into nAChR γ subunit” value (Torpedo nAChR [1]) was 20%. For the same compound, the “reduction of [^3H]physostigmine photolabeling of δTyr-172” value (Torpedo nAChR [1]) was 70%, the “reduction of efficiency of [^3H]physostigmine photolabeling of δTyr-212” value (Torpedo nAChR [1]) was ~ 25% and the “alteration of [^3H]physostigmine photoincorporation in Na^+/K^+-ATPase α subunit” value [2] was < 5%.
